Source: article PMC12348470, “Amino Acid Substitutions in Bacteriocin Lactolisterin BU Reveal Functional Domains Involved in Biological Activity Against Staphylococcus aureus” (Molecules, 2025)
Ends that are not written are not given here.

Columns and labels:
S. aureus ATCC 25923 [1] = format: cell-based, Staphylococcus aureus
Protocol: MIC values were determined by broth microdilution following the guidelines of the European Committee on Antimicrobial Susceptibility Testing (EUCAST, Version 5.0), with a modification in the choice of medium. Instead of cation-adjusted Mueller–Hinton Broth (CA-MHB), Luria–Bertani (LB) broth was used for all MIC assays involving S. aureus ATCC 25923 to ensure consistency with conditions used in complementary experiments. Two-fold serial dilutions of peptides (ranging from 1.56 to 50 µg/mL) were prepared in sterile LB, inoculated with ~5 × 10^5 CFU/mL bacterial suspension, and incubated at 37 °C for 18–20 h. MIC was defined as the lowest peptide concentration with no visible bacterial growth. All assays were performed in triplicate.

S. aureus ATCC 25923 [2] = format: cell-based, Staphylococcus aureus; remark: listed apart in the source
S. aureus ATCC 25923 [3] = assay: Spot-on-the-lawn antimicrobial screening; format: cell-based, Staphylococcus aureus; conditions: 5 µL spots at 1000, 500, 250, 125 and 62.5 µg/mL on LB soft agar lawn; overnight, 37 °C
Protocol: The antimicrobial activity screening assay of twelve chemically synthesized peptides was evaluated using a spot-on-the-lawn assay against S. aureus ATCC 25923.
S. aureus ATCC 25923 was grown overnight in LB broth, adjusted to 0.5 McFarland (~1 × 10^8 CFU/mL), and mixed 1:100 into molten soft agar (0.7% agar in LB). Five milliliters of this suspension was overlaid onto LB agar plates and allowed to solidify.
Peptide stock solutions (1 mg/mL) were serially diluted in sterile water, and 5 µL of each dilution was carefully spotted onto the surface of the inoculated agar. The plates were dried under a laminar flow hood for 15–20 min and incubated overnight at 37 °C. Zones were observed, and their size and clarity were compared.

gut peptidases = tested on: gut peptidases; design: method as in PMID 28842543; conditions: cited from earlier work
sheep erythrocytes = assay: Hemolysis assay; format: cell-based
Protocol: Hemolytic activity of peptides was assessed as described by Dong et al., with some modifications. Fresh defibrinated sheep blood was obtained from the Institute of Virology, Vaccines and Sera “Torlak” (Belgrade, Serbia). Erythrocytes were washed three times with sterile Tris-buffered saline (TBS, 10 mM TRIS-HCl, pH 7.4, 150 mM NaCl) by centrifugation at 800× g for 5 min and resuspended to a final 2% (v/v) erythrocyte suspension in TBS.
Peptide solutions (0.02 M HCl) were diluted in Tris-buffered saline (TBS, 10 mM TRIS-HCl, pH 7.4, 150 mM NaCl) to final concentrations ranging from 6.25 to 50 µg/mL. In a 96-well flat-bottom plate, 100 µL of peptide solution was mixed with 100 µL of erythrocyte suspension and incubated at 37 °C for 1 h.
After incubation, the plates were centrifuged at 1000× g for 5 min, and 100 µL of the supernatant was transferred to a flat-bottom 96-well plate. Absorbance was measured at 540 nm using a microplate reader (model BioTek Epoch Microplate Spectrophotometer; Agilent Technologies, Winooski, VT, USA).
Hemolysis (%) was calculated relative to a negative control (TBS; 0% lysis) and a positive control (0.1% SDS; 100% lysis) using the formula: Hemolysis (%)=Asample−ATBS/ASDS−ATBS×100
The assay was performed in triplicate.

[4] = design: method as in PMID 28842543; conditions: cited from earlier work
Danio rerio embryos = assay: Zebrafish embryo toxicity (OECD TG 236); format: in vivo; conditions: 120 hpf
Protocol: Embryos were exposed to six different increasing concentrations of each peptide for 5 consecutive days (120 hfp) and examined for survival and signs of toxicity, following toxicological endpoints (Table S1).
The toxicity of synthetic peptide variants was assessed in vivo using Danio rerio embryos, in accordance with OECD Test Guideline 236 (Fish Embryo Acute Toxicity Test) and the European Directive 2010/63/EU on the protection of animals used for scientific purposes, according to Aleksic et al.. All procedures were conducted at the Institute of Molecular Genetics and Genetic Engineering, University of Belgrade.
Wild-type adult zebrafish were maintained under standard laboratory conditions (28 °C; 14:10 h light–dark cycle). Embryos were obtained via pairwise mating and collected within 1 h post-fertilization (hpf). At 5 hpf, the embryos were randomly distributed into 24-well plates (10 embryos/well, 1 mL embryo medium per well) containing embryo water (0.2 mg/mL Instant Ocean® salts in distilled water). Peptides were tested at five concentrations (e.g., 1.56–25 µg/mL) in triplicate. Peptide solvent was used as a negative control. The plates were incubated at 28 °C without media replacement.
Embryonic development was monitored using an inverted microscope (Zeiss Stemi 508; Carl Zeiss Microscopy GmbH, Jena, Germany). Lethal endpoints and sublethal malformations were scored according to OECD guidelines (Table S1). At 120 hpf, the embryos were anesthetized using 0.1% tricaine, photographed, and euthanized via freezing at −20 °C for 24 h.
LC50 values were estimated using the log–logistic binomial model (LL.2) from the drc package in R.
Dose–response curves and LC50 values were estimated using the log–logistic binomial model (LL.2) from the drc package in R [79] (version 2025.05.0). Mortality data were modeled as proportions of dead individuals relative to total individuals tested, and 95% confidence intervals for LC50 were calculated using the delta method.

Sequence	MIC (S. aureus ATCC 25923 [1]) [µg/mL]	MBC (S. aureus ATCC 25923 [2]) [µg/mL]	zones of inhibition, spot-on-the-lawn assay (S. aureus ATCC 25923 [3])	sensitivity to gut peptidases (gut peptidases)	hemolytic activity, in words (sheep erythrocytes; 6.25 to 50 µg/mL, sheep erythrocytes, 37 °C, 1 h)	Hemolytic activity (%) at 50 µg/mL (sheep erythrocytes; pH 7.4) [%]	pH range of activity [4]	salt tolerance [4]	concentration at which yolk sac retention was observed (Danio rerio embryos) [ng/mL]
MWGRILGTVAKYGTKAVSWAWQHKWELINMGDLAFRYIQRIWG [Peptide P14T]	25	>50	retained partial activity with a mild decrease in zone diameter compared to LBU						
MWARILGTVAKYGPKAVSWAWQAKWELINMGDLAFRYIQRIWG [G3A/H23A]	>50	>50	complete loss of antimicrobial activity						
MWGRILGTVAKYGAKAVSWAWQHKWELINMGDLAFRYIQRIWG [Peptide P14A]	25		only faint inhibition zones at the highest concentrations (1000 and 500 µg/mL)						
MEGRILGTVAKYGPKAVSWAWQHKWELINMGDLAFRYIQRIWG [Peptide W2E]	>50	>50	decreased antimicrobial potency						
MWGRILGTVAKYGPKAVSWAWQHKWELINMGDLAFRYIQRIWG [LBU]	12.5	25	clear zones of inhibition across the tested concentrations, except 62.5 µg/mL	sensitive to gut peptidases	negligible hemolytic activity across all concentrations	2.98	shows activity in a wide pH range	salt-tolerable	6250
MWGRILGTVAKYGPKAVSWAWQRKWELINMGDLAFRYIQRIWG [Peptide H23R]	12.5	50	comparable to the wild-type LBU peptide						
MWGRILGTVAKYGPKAVSWAWQAKWELINMGDLAFRYIQRIWG [Peptide H23A]	>50	>50	complete loss of antimicrobial activity						
